These results are taken from ChEMBL document CHEMBL5550120, “SuFEx-based chemical diversification for the systematic discovery of CRBN molecular glues” (Bioorg Med Chem, 2024).

Activity calls are given as the source filed them. The calls are words filed in the database; no cut-off is given here.

Chain of DNA-binding protein Ikaros (Homo sapiens) (Q13422 whole entry): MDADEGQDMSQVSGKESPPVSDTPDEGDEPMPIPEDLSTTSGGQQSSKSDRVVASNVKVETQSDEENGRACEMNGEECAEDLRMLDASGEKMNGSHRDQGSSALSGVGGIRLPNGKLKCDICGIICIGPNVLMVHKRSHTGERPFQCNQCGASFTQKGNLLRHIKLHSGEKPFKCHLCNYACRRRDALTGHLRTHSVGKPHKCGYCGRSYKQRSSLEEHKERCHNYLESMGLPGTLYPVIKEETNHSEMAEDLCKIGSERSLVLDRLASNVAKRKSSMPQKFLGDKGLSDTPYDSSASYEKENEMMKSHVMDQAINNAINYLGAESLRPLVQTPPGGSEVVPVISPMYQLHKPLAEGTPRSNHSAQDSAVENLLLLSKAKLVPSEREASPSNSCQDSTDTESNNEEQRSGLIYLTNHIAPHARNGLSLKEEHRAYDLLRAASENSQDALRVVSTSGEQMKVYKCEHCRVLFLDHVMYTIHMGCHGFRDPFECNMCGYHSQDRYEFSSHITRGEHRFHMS

For the first test, the system named is MOLT-4. Put plainly: Antiproliferative activity against wild type human MOLT-4 cells assessed as reduction in cell viability measured after 3 days by ATP-dependent luminescence assay. As to conditions: MOLT-4, 72 h. Format: functional, cell-based.
Broadly, the EC50 is the concentration needed to bring the measured effect to its halfway point. As to `Cc1cccc(Cl)c1OCCNS(=O)(=O)Nc1ccc2c(c1)CN(C1CCC(=O)NC1=O)C2=O` (configuration not stated), the EC50 turned out to be 180 nM.

For a further test, the system named is MV4-11. Put plainly: Antiproliferative activity against wild type human MV4-11 cells assessed as reduction in cell viability measured after 3 days by ATP-dependent luminescence assay. The test is classed as functional, cell-based. The settings on record: MV4-11, 72 h.
Consider `Cc1cccc(Cl)c1OCCNS(=O)(=O)Nc1ccc2c(c1)CN(C1CCC(=O)NC1=O)C2=O` (configuration not stated), for which the EC50 was 190 nM.

Another test relates to BE(2)-C. Put plainly: Antiproliferative activity against wild type human BE2C cells assessed as reduction in cell viability measured after 3 days by ATP-dependent luminescence assay. Format: functional, cell-based. The settings on record: 72 h.
Turning to `Cc1cccc(Cl)c1OCCNS(=O)(=O)Nc1ccc2c(c1)CN(C1CCC(=O)NC1=O)C2=O` (configuration not stated), the EC50 turned out to be 12000 nM.

A further test deals with T1, Protein cereblon/Eukaryotic peptide chain release factor GTP-binding subunit ERF3A (Homo sapiens, UniProt Q96SW2+P15170). Put plainly: Molecular glue activity at CRBN/HiBiT-tagged GSPT1 in human MOLT-4 cells assessed as induction of GSPT1 degradation measured after 3 hrs by immunoblot analysis. The test is classed as cell-based.
Settings: not given
Target sequence in this assay (Q96SW2 whole entry): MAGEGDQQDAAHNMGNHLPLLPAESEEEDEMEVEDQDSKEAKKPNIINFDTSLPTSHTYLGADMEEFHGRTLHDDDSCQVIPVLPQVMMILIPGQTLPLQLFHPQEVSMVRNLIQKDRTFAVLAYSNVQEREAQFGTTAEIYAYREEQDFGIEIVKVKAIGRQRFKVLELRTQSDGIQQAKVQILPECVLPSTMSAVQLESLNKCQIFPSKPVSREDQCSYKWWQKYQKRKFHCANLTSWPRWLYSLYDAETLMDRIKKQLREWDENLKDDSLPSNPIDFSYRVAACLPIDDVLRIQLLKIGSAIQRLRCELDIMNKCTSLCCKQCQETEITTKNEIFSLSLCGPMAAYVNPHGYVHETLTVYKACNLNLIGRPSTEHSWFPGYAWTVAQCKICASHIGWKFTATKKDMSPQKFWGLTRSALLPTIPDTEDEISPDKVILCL
Target sequence in this assay (P15170 whole entry): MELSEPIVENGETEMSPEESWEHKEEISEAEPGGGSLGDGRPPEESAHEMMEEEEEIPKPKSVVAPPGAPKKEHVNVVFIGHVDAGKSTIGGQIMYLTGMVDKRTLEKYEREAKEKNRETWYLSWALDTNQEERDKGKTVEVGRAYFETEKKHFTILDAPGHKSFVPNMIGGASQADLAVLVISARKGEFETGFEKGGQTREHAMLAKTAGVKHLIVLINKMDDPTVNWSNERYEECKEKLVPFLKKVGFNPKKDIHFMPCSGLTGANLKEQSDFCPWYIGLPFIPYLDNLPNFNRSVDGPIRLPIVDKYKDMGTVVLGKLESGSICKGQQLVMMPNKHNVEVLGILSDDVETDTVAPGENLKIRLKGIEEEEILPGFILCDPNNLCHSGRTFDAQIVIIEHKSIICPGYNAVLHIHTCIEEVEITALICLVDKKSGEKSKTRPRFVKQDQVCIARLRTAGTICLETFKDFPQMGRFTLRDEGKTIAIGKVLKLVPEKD
Broadly, the DC50 is the midpoint of the concentration-degradation curve. For the compound `Cc1cccc(Cl)c1OCCNS(=O)(=O)Nc1ccc2c(c1)CN(C1CCC(=O)NC1=O)C2=O` (configuration not stated), the DC50 was 280 nM.

The target of a further test is T1, Protein cereblon/Eukaryotic peptide chain release factor GTP-binding subunit ERF3A. Put plainly: Molecular glue activity at CRBN/HiBiT-tagged GSPT1 in wild type human MV4-11 cells assessed as induction of GSPT1 degradation measured after 3 hrs by immunoblot analysis. Format: cell-based.
Settings: not given
In general terms: HiBiT is a short tag that completes a luciferase, so light tracks the accessible tagged protein.
Target sequence in this assay (Q96SW2 whole entry): as the sequence (Q96SW2 whole entry) above
Target sequence in this assay (P15170 whole entry): as the sequence (P15170 whole entry) above
For the compound `Cc1cccc(Cl)c1OCCNS(=O)(=O)Nc1ccc2c(c1)CN(C1CCC(=O)NC1=O)C2=O` (configuration not stated), the DC50 came to 280 nM.

For the next test the target is unchanged. Description: Molecular glue activity at CRBN/HiBiT-tagged GSPT1 in wild type human BE2C cells assessed as induction of GSPT1 degradation measured after 3 hrs by immunoblot analysis. The test is classed as cell-based.
Settings: not given
Target sequence in this assay (Q96SW2 whole entry): as the sequence (Q96SW2 whole entry) above
Target sequence in this assay (P15170 whole entry): as the sequence (P15170 whole entry) above
Take `Cc1cccc(Cl)c1OCCNS(=O)(=O)Nc1ccc2c(c1)CN(C1CCC(=O)NC1=O)C2=O` (configuration not stated): the DC50 was determined as 8000 nM.

System in a further test: not listed separately
Put plainly: Selectivity index, ratio of EC50 for antiproliferative activity against human BE2C cells to EC50 for antiproliferative activity against human MOLT-4 cells. The test is classed as functional.
Settings: not given
For the compound `Cc1cccc(Cl)c1OCCNS(=O)(=O)Nc1ccc2c(c1)CN(C1CCC(=O)NC1=O)C2=O` (configuration not stated), the “Ratio EC50” value is reported as roughly 100.

System in another test: not listed separately
Put plainly: Selectivity index, ratio of EC50 for antiproliferative activity against human BE2C cells to EC50 for antiproliferative activity against human MV4-11 cells. Format: functional.
Settings: not given
Regarding `Cc1cccc(Cl)c1OCCNS(=O)(=O)Nc1ccc2c(c1)CN(C1CCC(=O)NC1=O)C2=O` (configuration not stated), the “Ratio EC50” value is on record as roughly 100.

In another test the test system is MOLT-4. Put plainly: Antiproliferative activity against CRBN depleted human MOLT-4 cells assessed as reduction in cell viability measured after 3 days by ATP-dependent luminescence assay. The test is classed as functional, cell-based. As to conditions: time 3.0 day.
Consider `Cc1cccc(Cl)c1OCCNS(=O)(=O)Nc1ccc2c(c1)CN(C1CCC(=O)NC1=O)C2=O` (configuration not stated), for which the result was inactive.

For the next test, the system named is MOLT-4. Description: Antiproliferative activity against human MOLT-4 cells harboring GSPT1 G575N mutant assessed as reduction in cell viability measured after 3 days by ATP-dependent luminescence assay. Format: functional, cell-based. The settings on record: time 3.0 day.
`Cc1cccc(Cl)c1OCCNS(=O)(=O)Nc1ccc2c(c1)CN(C1CCC(=O)NC1=O)C2=O` (configuration not stated): the result was inactive.

For a further test, the system named is MV4-11. Put plainly: Antiproliferative activity against CRBN depleted human MV4-11 cells assessed as reduction in cell viability measured after 3 days by ATP-dependent luminescence assay. The test is classed as functional, cell-based. The settings on record: time 3.0 day.
On to `Cc1cccc(Cl)c1OCCNS(=O)(=O)Nc1ccc2c(c1)CN(C1CCC(=O)NC1=O)C2=O` (configuration not stated), for which the outcome was inactive.

A further test concerns MV4-11. Put plainly: Antiproliferative activity against human MV4-11 cells harboring GSPT1 G575N mutant assessed as reduction in cell viability measured after 3 days by ATP-dependent luminescence assay. The test is classed as functional, cell-based. As to conditions: time 3.0 day.
As for `Cc1cccc(Cl)c1OCCNS(=O)(=O)Nc1ccc2c(c1)CN(C1CCC(=O)NC1=O)C2=O` (configuration not stated), the outcome was inactive.

The test system of the next test is BE(2)-C. Put plainly: Antiproliferative activity against CRBN depleted human BE2C cells assessed as reduction in cell viability measured after 3 days by ATP-dependent luminescence assay. The test is classed as functional, cell-based. As to conditions: time 3.0 day.
For the compound `Cc1cccc(Cl)c1OCCNS(=O)(=O)Nc1ccc2c(c1)CN(C1CCC(=O)NC1=O)C2=O` (configuration not stated), the outcome was inactive.

A further test concerns BE(2)-C. Put plainly: Antiproliferative activity against human BE2C cells harboring GSPT1 G575N mutant assessed as reduction in cell viability measured after 3 days by ATP-dependent luminescence assay. The settings on record: time 3.0 day. The test is classed as functional, cell-based.
Turning to `Cc1cccc(Cl)c1OCCNS(=O)(=O)Nc1ccc2c(c1)CN(C1CCC(=O)NC1=O)C2=O` (configuration not stated), the result was inactive.

The next test concerns the target DNA-binding protein Ikaros (Homo sapiens) (UniProt Q13422). Description: Induction of IKZF1 degradation in human MV4-11 cells at 3 uM measured after 3 hrs by proteomics analysis. The test is classed as cell-based.
Settings: not given
Consider `Cc1cccc(Cl)c1OCCNS(=O)(=O)Nc1ccc2c(c1)CN(C1CCC(=O)NC1=O)C2=O` (configuration not stated), for which the result was inactive.

The next test has as its target T1, Protein cereblon/Eukaryotic peptide chain release factor GTP-binding subunit ERF3A. Description: Molecular glue activity at CRBN/GSPT1 in CRBN depleted human MOLT-4 cells assessed as induction of GSPT1 degradation at 3 uM measured after 3 hrs by immunoblot analysis. The test is classed as cell-based.
Settings: not given
Target sequence in this assay (P15170 whole entry, looked up): as the sequence (P15170 whole entry) above
Target sequence in this assay (Q96SW2 whole entry, looked up): as the sequence (Q96SW2 whole entry) above
As to `Cc1cccc(Cl)c1OCCNS(=O)(=O)Nc1ccc2c(c1)CN(C1CCC(=O)NC1=O)C2=O` (configuration not stated), the result was inactive.

Another test shares this target. Put plainly: Molecular glue activity at CRBN/GSPT1 in human MOLT-4 cells harboring GSPT1 G575N mutant assessed as induction of GSPT1 degradation at 3 uM measured after 3 hrs by immunoblot analysis. The test is classed as cell-based.
Settings: not given
A general note: Immunoblotting shows a protein as a band on a membrane.
Target sequence in this assay (P15170 whole entry, looked up): as the sequence (P15170 whole entry) above
Target sequence in this assay (Q96SW2 whole entry, looked up): as the sequence (Q96SW2 whole entry) above
With `Cc1cccc(Cl)c1OCCNS(=O)(=O)Nc1ccc2c(c1)CN(C1CCC(=O)NC1=O)C2=O` (configuration not stated), the outcome was inactive.
